# Measurements from patent US20220324835A1 (Nurix Therapeutics, Inc., priority 2018, published 2022).
# Columns and labels:
# Format in all cases: cell-based
# [1] = tested on: primary human total T-cells; assay: T-cell activation assessed by CD69 expression
# Description: (§1) Peripheral blood mononuclear cells (PBMC) were obtained either: 1) by using Ficoll-Paque™ (GE Healthcare) for separation of peripheral blood hematopoietic cells from buffy coats of healthy human donors; or 2) directly from FeukoPak donations. Total human primary T-cells were isolated from the PMBCs utilizing negative selection with commercial kits following the manufacturer's protocol (Miltenyi Catalog #130-096-535 (i.e., cocktail of antibodies against surface markers CD14, CD15, CD16, CD19, CD34, CD36, CD56, CD123 and CD235a are incubated with the PBMCs before passing the samples by magnetic beads for removal of cells expressing those surface markers) or StemCells Catalog #17951) to yield >95% CD3+ cells as assessed by flow cytometry. For measurement of cell proliferation, cells were labeled with Cell Trace Violet (Invitrogen) following manufacturer's protocol prior to activation by stimulation with anti-CD3 antibody alone or in combination with anti-CD28 antibody. The Cbl-b inhibitor was added to 1×10^5 cells per well at multiple concentrations (e.g., 10 μM, 1.11 μM, or 0.123 μM) with a final DMSO concentration of <0.1%. The plate was incubated for one hour at 37° C. in 5% CO2. Following incubation with the Cbl-b inhibitor, primary human total T-cells were stimulated with either plate bound anti-CD3 antibody (OKT3) alone or plate bound anti-CD3 antibody (OKT3) with soluble anti-CD28 antibody (28.2) (Life Technologies). To prepare plates with plate bound anti-CD3 antibody (OKT3), 96-well round bottom tissue culture plates were coated with 100 μl of anti-CD3 antibody (OKT3) at 10 μg/mL for 4 hours at 37° C. 5% CO2 in phosphate buffered saline (PBS). The plates were washed with PBS prior to adding the cells with or without soluble anti-CD28 antibody (28.2) to each well at a final concentration of 5 μg/mL. Cells were stimulated for 48 hours prior to harvesting the cell free supernatant and staining the cell population for surface marker assessment by flow cytometry. Supernatants were analyzed for cytokine secretion (e.g., GM-CSF, IFNγ and TNFα) by ELISA (R&D Systems, Peprotech or Life Technologies) or Luminex multiplex kits (Procarta Life Technologies) following manufacturer's protocol. Cells were stained with anti-CD69 (BD Biosciences) to assess levels of surface markers of activation. Proliferation was measured by flow cytometry and data was analyzed with FlowJo v7.6.5 or v10. Readouts were reported as fold change over baseline. In some embodiments, baseline was the measurement obtained from total human T-cells stimulated with anti-CD3 antibody alone, wherein the cells were not incubated with a Cbl-b inhibitor. In some embodiments, baseline was the measurement obtained from total human T-cells stimulated with anti-CD3 antibody and anti-CD28 antibody, where the cells were not incubated with a Cbl-b inhibitor.
# (§2) Cbl-b inhibitors were tested to determine their ability to induce or enhance secretion of cytokines from T-cells (e.g., GM-CSF, IFNγ and TNFα) and/or surface expression of cell surface markers on T-cells (e.g., CD69) that is indicative of T-cell activation. Cbl-b inhibitors were also tested to determine their ability to induce or enhance T-cell proliferation. Cbl-b inhibitors were tested for their effects on T-cell activation in the presence of costimulation and where conditions were suboptimal for priming.
# (§3) Readouts for T-cell activation were reported as fold change over baseline. Baseline for this study was the measurement obtained from total human T-cells stimulated with anti-CD3 antibody alone or anti-CD3 antibody in combination with soluble anti-CD28 antibody, where the cells were not incubated with a Cbl-b inhibitor. For T-cells stimulated with anti-CD3/anti-CD28 or with anti-CD3 alone changes greater than 1,2-fold over baseline for % positive CD69 staining and greater than 2-fold over baseline for % total proliferating cells were considered a significant and positive response (Table 4a). […]
# [2] = tested on: primary human total T-cells; assay: T-cell activation assessed by cell proliferation (Cell Trace Violet)
# Description: as §1, §2, §3
# [3] = tested on: primary human total T-cells; assay: T-cell activation assessed by cytokine secretion (GM-CSF, IFNγ, TNFα)
# Description: as §1, §2, §3
# [4] = CD3/CD28 stimulation, CD4 T-cells, read-out: % CD69+ (CD4)
# [5] = CD3/CD28 stimulation, CD8 T-cells, read-out: % CD69+ (CD8)
# [6] = CD3 alone stimulation, CD4 T-cells, read-out: % CD69+ (CD4)
# [7] = CD3 alone stimulation, CD8 T-cells, read-out: % CD69+ (CD8)
# [8] = CD3/CD28 stimulation, CD4 T-cells, read-out: % CP (cell proliferation) (CD4)
# [9] = CD3/CD28 stimulation, CD8 T-cells, read-out: % CP (cell proliferation) (CD8)
# [10] = CD3 alone stimulation, CD8 T-cells, read-out: % CP (cell proliferation) (CD8)
# [11] = CD3/CD28 stimulation, read-out: GM-CSF secretion
# [12] = CD3/CD28 stimulation, read-out: IFNγ secretion
# [13] = CD3/CD28 stimulation, read-out: TNFα secretion
# [14] = CD3 alone stimulation, read-out: GM-CSF secretion
# [15] = CD3 alone stimulation, read-out: IFNγ secretion
# [16] = CD3 alone stimulation, read-out: TNFα secretion
Compound,"fold induction at 1.11 µM [1, 4]","fold induction at 10 µM [1, 4]","fold induction at 1.11 µM [1, 5]","fold induction at 10 µM [1, 5]","fold induction at 1.11 µM [1, 6]","fold induction at 10 µM [1, 6]","fold induction at 1.11 µM [1, 7]","fold induction at 10 µM [1, 7]","fold induction at 1.11 µM [2, 8]","fold induction at 10 µM [2, 8]","fold induction at 1.11 µM [2, 9]","fold induction at 10 µM [2, 9]","fold induction at 1.11 µM [2, 10]","fold induction at 10 µM [2, 10]","fold induction at 1.11 µM [3, 11]","fold induction at 1.11 µM [3, 12]","fold induction at 1.11 µM [3, 13]","fold induction at 10 µM [3, 11]","fold induction at 10 µM [3, 12]","fold induction at 10 µM [3, 13]",other results
"Cn1cnnc1CC1(c2cccc(NC(=O)c3nc4c(C(F)(F)F)cccc4[nH]3)c2)COC1 [Compound 335, N-(3-{3-[(4-methyl-1,2,4-triazol-3-yl)methyl]oxetan-3-yl}phenyl)-4-(trifluoromethyl)-1H-1,3-benzodiazole-2-carboxamide]",1.4 to 1.6,> 1.6,1.2 to 1.4,1.2 to 1.4,> 1.6,> 1.6,1.2 to 1.4,1.4 to 1.6,> 4,> 4,3.01 to 4,3.01 to 4,> 4,> 4,1.51 to 2,> 4,1.51 to 2,> 4,2.01 to 3,2.01 to 4,"fold induction at 1.11 µM [3, 14]: ≤ 1.5; fold induction at 1.11 µM [3, 15]: < 2; fold induction at 1.11 µM [3, 16]: 1.51 to 2; fold induction at 10 µM [3, 14]: 2.01 to 4; fold induction at 10 µM [3, 15]: 2.01 to 3; fold induction at 10 µM [3, 16]: 1.51 to 2"
"Cc1cc(C(=O)Nc2cccc(C3(Cc4nncn4C)COC3)c2)nc(C2CC2)n1 [Compound 336, 2-cyclopropyl-6-methyl-N-(3-(3-((4-methyl-4H-1,2,4-triazol-3-yl)methyl)oxetan-3-yl)phenyl)pyrimidine-4-carboxamide]",1.4 to 1.6,1.4 to 1.6,1.2 to 1.4,1.2 to 1.4,1.4 to 1.6,> 1.6,1.2 to 1.4,1.4 to 1.6,> 4,> 4,3.01 to 4,> 4,> 4,> 4,2.01 to 4,2.01 to 3,2.01 to 4,> 4,> 4,2.01 to 4,"fold induction at 1.11 µM [3, 14]: 2.01 to 4; fold induction at 1.11 µM [3, 15]: 2.01 to 3; fold induction at 1.11 µM [3, 16]: 1.51 to 2; fold induction at 10 µM [3, 14]: 2.01 to 4; fold induction at 10 µM [3, 15]: > 4; fold induction at 10 µM [3, 16]: 1.51 to 2"
"Cc1n[nH]c(C)c1-c1cc2c(c(C(F)(F)F)c1)CN(c1cccc(C3(Cc4nncn4C)COC3)c1)C2=O [Compound 385, 6-(3,5-dimethyl-1H-pyrazol-4-yl)-2-(3-{3-[(4-methyl-4H-1,2,4-triazol-3-yl)methyl]oxetan-3-yl}phenyl)-4-(trifluoromethyl)-2,3-dihydro-1H-isoindol-1-one]",1.2 to 1.4,1.4 to 1.6,1.2 to 1.4,1.2 to 1.4,1.4 to 1.6,> 1.6,1.2 to 1.4,1.4 to 1.6,> 4,> 4,2.01 to 3,3.01 to 4,3.01 to 4,> 4,1.51 to 2,< 2,1.51 to 2,2.01 to 4,> 4,2.01 to 4,"fold induction at 1.11 µM [3, 14]: 1.51 to 2; fold induction at 1.11 µM [3, 15]: < 2; fold induction at 1.11 µM [3, 16]: ≤ 1.5; fold induction at 10 µM [3, 14]: 2.01 to 4; fold induction at 10 µM [3, 15]: < 2; fold induction at 10 µM [3, 16]: 1.51 to 2"
